{"source": "paper PMC8140105", "about": "(Scientific Reports, 2021)", "key": {"Caco-2 monolayer": {"tested_on": "Caco-2 monolayer", "assay": "Caco-2 assay (apparent permeability)", "format": "in vitro ADME", "description": "Caco-2 (Sigma-Aldrich, Diegem, Belgium) cells were grown in DMEM supplemented with 10% FBS, 1% NEAA and 1% penicillin/streptomycin solution. A total of 3 × 10^5 cells per filter were seeded in a 12-well plate and left for differentiation during 21–29 days (medium change every other day). Monolayer formation was checked by measuring the TEER values which should be above 0.30 kΩ × cm^2 [72]. After washing with Hank’s balanced salt solution, 400 µL of a 1 µM peptide solution was added to the apical side of the filter. After 30, 60, 90 and 120 min, 100 µL of the acceptor compartment was taken for UPLC-MS/MS analysis (Supplementary method S2). Linear curve fitting was used to calculate the apparent permeability coefficient (Papp), as sink conditions were achieved.\nThe reduction in acceptor concentration was also taken into account after every sampling. The cumulative amount in the acceptor compartment is defined as:2 Cumulativeamount=CrnVr+∑k=1n-1CrkVs with Crk = concentration at sample point k in acceptor compartment; Vr = volume in the receiver chamber; Vs = volume sampled; n = times sampled. […]\nSupplementary method S2: UPLC-MS parameters Caco-2 assay\nAliquots of the acceptor compartment are analyzed using the following validated UPLC-\nColumn Acquity UPLC BEH C18 (2.1 × 100 mm, 1.7 µm) protected with a suitable guard\nSample temperature: 10°C.\nA: 93/2/5 (v/v) H2O + ACN + DMSO + 0.1% FA\nB: 2/93/5 (v/v) H2O + ACN + DMSO + 0.1% FA\nTable 1: Quantifier of PapRIV.\nPeptide Mother ion Daughter ion Collision energy MS\nInjection volume: 10.0 µL\nTable 2: Gradient program\nTime (min) Mobile phase A (%) Mobile phase B (%)"}, "[1]": {"assay": "Brain-to-blood transport (efflux)", "format": "in vivo, ICR-CD-1 mice", "details": "kout not significantly different from zero", "description": "Briefly, 0.1 µmol of the lyophilized peptide was dissolved in 100 µL of phosphate buffer (pH 7.4, 25 mM). A Iodo-Gen coated tube (Thermo Scientific, Merelbeke, Belgium) was first of all rinsed with 1 mL of phosphate buffer. Subsequently, 50 µL of sodium iodide solution (1.1 µmol/mL) and 1 mCi of Na^125I solution (Perking Elmer, Zaventem, Belgium) were transferred into this Iodo-Gen coated tube. The oxidation reaction was allowed to proceed for six minutes at room temperature, after which the iodonium solution was transferred to 50 µL of peptide solution (1 mM). The iodination reaction of the peptide was allowed to proceed for another six minutes at room temperature. […]\nWe quantified the amount of peptide exported out of the brain as previously described. […] Then, the whole brain was collected, weighed and measured in a gamma counter for 5 min. Fifty µL of serum, which was obtained by centrifuging the collected blood at 10,000g during 15 min at 21 °C, and the background was also measured in a gamma counter. The efflux half-life was calculated from the linear regression of the natural logarithm of the residual radioactivity in brain versus time as follows:3 t1/2=ln(2)/kout where kout is defined as the efflux rate constant calculated as the negative value of the slope of the linear regression, applying first order kinetics."}}}
{"substance": "SDLPFEH [PapRIV, heptapeptide (SDLPFEH) quorum sensing peptide originating from the Bacillus cereus group; synthetic, purchased from GL Biochem]", "values": [{"measurement": "Papp at 4 °C", "setting": "Caco-2 monolayer; Caco-2, 4 °C, compared with Papp at 37 °C, n = 6 (Supplementary Fig. S1)", "result": "comparable"}, {"measurement": "Papp", "setting": "Caco-2 monolayer; Caco-2, apical to basolateral, 1 µM peptide (400 µL) after washing with Hank's balanced salt solution, cells differentiated 21–29 days, TEER above 0.30 kΩ × cm^2, acceptor sampled 30, 60, 90, 120 min, 37 °C, UPLC-MS/MS, linear fit, n = 6", "result": "1.37 ± 0.21 × 10^–9 cm/s"}, {"measurement": "Papp in the opposite basolateral-apical direction", "setting": "Caco-2 monolayer; Caco-2, basolateral to apical, compared with apical-basolateral Papp, n = 6 (Supplementary Fig. S1)", "result": "comparable"}, {"measurement": "mass balance", "setting": "Caco-2 monolayer; Caco-2 assay, 1 µM, 120 min", "result": "< 2", "unit": "%"}, {"measurement": "efflux from brain back to the circulation", "setting": "[1]", "result": "no efflux"}]}
